Experimental findings from ChEMBL document CHEMBL3880412, “Indole derivatives as CFTR modulators” (2009) are described below.

The assay concerns Cystic fibrosis transmembrane conductance regulator (Homo sapiens), P13569 [F508del]. The assay is described as follows: Correction activity at CFTR F508 deletion mutant (unknown origin) expressed in mouse NIH/3T3 cells assessed as increase in cAMP/genistein-dependent current amplitude at 10 uM incubated for 10 mins at 37 degC by patch clamp method relative to control. The format is cell-based. In general terms: Patch clamp records ionic current or voltage across a cell membrane.
Chain of Cystic fibrosis transmembrane conductance regulator (Homo sapiens), P13569 [F508del] (P13569 as listed by the source): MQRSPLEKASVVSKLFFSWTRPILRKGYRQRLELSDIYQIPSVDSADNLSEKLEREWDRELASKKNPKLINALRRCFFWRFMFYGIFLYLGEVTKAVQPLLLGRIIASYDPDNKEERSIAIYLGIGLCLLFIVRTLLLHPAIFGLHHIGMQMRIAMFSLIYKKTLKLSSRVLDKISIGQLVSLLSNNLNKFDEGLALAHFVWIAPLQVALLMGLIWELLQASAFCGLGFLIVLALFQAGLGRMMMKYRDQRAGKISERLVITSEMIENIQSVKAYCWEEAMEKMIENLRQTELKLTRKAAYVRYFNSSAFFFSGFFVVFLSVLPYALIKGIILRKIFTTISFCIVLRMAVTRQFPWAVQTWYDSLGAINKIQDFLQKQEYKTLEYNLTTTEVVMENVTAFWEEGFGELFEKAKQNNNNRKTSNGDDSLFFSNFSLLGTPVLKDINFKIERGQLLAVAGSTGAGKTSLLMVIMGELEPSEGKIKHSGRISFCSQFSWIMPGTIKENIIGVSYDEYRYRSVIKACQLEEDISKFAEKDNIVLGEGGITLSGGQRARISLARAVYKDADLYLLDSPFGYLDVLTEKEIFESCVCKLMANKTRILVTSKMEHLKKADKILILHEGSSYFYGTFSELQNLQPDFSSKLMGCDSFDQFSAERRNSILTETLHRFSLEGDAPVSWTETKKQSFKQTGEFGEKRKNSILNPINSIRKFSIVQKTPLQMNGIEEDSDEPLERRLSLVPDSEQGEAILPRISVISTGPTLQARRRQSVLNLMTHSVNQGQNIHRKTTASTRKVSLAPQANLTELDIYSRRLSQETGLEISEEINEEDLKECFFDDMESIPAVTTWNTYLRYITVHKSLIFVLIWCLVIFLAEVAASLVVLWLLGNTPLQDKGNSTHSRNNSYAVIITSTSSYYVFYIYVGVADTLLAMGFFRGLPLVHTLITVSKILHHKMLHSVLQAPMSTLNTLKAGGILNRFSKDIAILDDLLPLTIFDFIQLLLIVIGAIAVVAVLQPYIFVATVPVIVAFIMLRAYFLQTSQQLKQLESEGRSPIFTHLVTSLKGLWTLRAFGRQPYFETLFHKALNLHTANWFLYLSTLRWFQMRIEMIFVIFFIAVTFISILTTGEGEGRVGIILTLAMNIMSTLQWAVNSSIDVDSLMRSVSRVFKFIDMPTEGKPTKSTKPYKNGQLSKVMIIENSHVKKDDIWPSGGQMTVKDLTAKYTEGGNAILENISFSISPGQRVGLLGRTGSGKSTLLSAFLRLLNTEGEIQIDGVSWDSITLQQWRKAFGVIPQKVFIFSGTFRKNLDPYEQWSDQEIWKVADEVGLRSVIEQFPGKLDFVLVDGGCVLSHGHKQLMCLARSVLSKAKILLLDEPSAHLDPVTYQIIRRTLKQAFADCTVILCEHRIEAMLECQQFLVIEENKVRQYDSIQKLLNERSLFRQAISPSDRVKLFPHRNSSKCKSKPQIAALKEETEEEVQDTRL

What is called Emax is the size of the effect at its maximum, as opposed to the concentration needed. In the case of `CC(C)(C)c1cc2cc(NC(=O)C3(c4ccc5c(c4)OC(F)(F)O5)CC3)c(F)cc2n1CC[N+](C)(C)C`, the Emax was 122%.

For `CC(C)(C)c1cc2cc(NC(=O)C3(c4ccc5c(c4)OCO5)CC3)c(F)cc2n1C[C@@H](O)CO`, the Emax was in the range of 120 to 132%.
